Converted amounts (≈) assume the structure as drawn.
Legend:
Assay type in all cases: cell-based
[1] = system: Staphylococcus aureus ATCC 6538P; experiment: In vitro agar dilution MIC, organism code AA; conditions: Table 1B, unit assumed
Protocol: (§1) Representative compounds of the present invention were assayed in vitro for antibacterial activity as follows: Twelve petri dishes containing successive aqueous dilutions of the test compound mixed with 10 mL of sterilized Brain Heart Infusion (BHI) agar (Difco 0418-01-5) were prepared. Each plate was inoculated with 1:100 (or 1:10 for slow-growing strains, such as Micrococcus and Streptococcus) dilutions of up to 32 different microorganisms, using a Steers replicator block. The inoculated plates were incubated at 35-37° C. for 20 to 24 hours. In addition, a control plate, using BHI agar containing no test compound, was prepared and incubated at the beginning and end of each test.
(§2) An additional plate containing a compound having known susceptibility patterns for the organisms being tested and belonging to the same antibiotic class as the test compound was also prepared and incubated as a further control, as well as to provide test-to-test comparability.
(§3) After incubation, each plate was visually inspected. The minimum inhibitory concentration (MIC) was defined as the lowest concentration of drug yielding no growth, a slight haze, or sparsely isolated colonies on the inoculum spot as compared to the growth control.

[2] = system: Staphylococcus aureus A5177; experiment: In vitro agar dilution MIC, organism code BB; conditions: Table 1B, in µg/mL (unit assumed)
Protocol: as §1, §2, §3

[3] = system: Staphylococcus aureus A-5278; experiment: In vitro agar dilution MIC, organism code CC; conditions: Table 1B, unit assumed
Protocol: as §1, §2, §3

[4] = system: Staphylococcus aureus CMX 642A; experiment: In vitro agar dilution MIC, organism code DD; conditions: Table 1B, unit assumed
Protocol: as §1, §2, §3

[5] = system: Staphylococcus aureus NCTC10649M; experiment: In vitro agar dilution MIC, organism code EE; conditions: Table 1B, unit assumed
Protocol: as §1, §2, §3

[6] = system: Staphylococcus aureus CMX 553; experiment: In vitro agar dilution MIC, organism code FF; conditions: Table 1B, unit assumed
Protocol: as §1, §2, §3

[7] = system: Staphylococcus aureus 1775; experiment: In vitro agar dilution MIC, organism code GG; conditions: Table 1B, unit assumed
Protocol: as §1, §2, §3

[8] = system: Staphylococcus epidermidis 3519; experiment: In vitro agar dilution MIC, organism code HH; conditions: Table 1B, in µg/mL (unit assumed)
Protocol: as §1, §2, §3

[9] = system: Enterococcus faecium ATCC 8043; experiment: In vitro agar dilution MIC, organism code II; conditions: Table 1B, unit assumed
Protocol: as §1, §2, §3

[10] = system: Streptococcus bovis A-5169; experiment: In vitro agar dilution MIC, organism code JJ; conditions: Table 1B, unit assumed
Protocol: as §1, §2, §3

[11] = system: Streptococcus agalactiae CMX 508; experiment: In vitro agar dilution MIC, organism code KK; conditions: Table 1B, unit assumed
Protocol: as §1, §2, §3

[12] = system: Streptococcus pyogenes EES61; experiment: In vitro agar dilution MIC, organism code LL; conditions: unit assumed
Protocol: as §1, §2, §3

[13] = system: Streptococcus pyogenes 930; experiment: In vitro agar dilution MIC, organism code MM; conditions: unit assumed
Protocol: as §1, §2, §3

[14] = system: Streptococcus pyogenes PIU 2548; experiment: In vitro agar dilution MIC, organism code NN; conditions: unit assumed
Protocol: as §1, §2, §3

[15] = system: Micrococcus luteus ATCC 9341; experiment: In vitro agar dilution MIC, organism code OO; conditions: Table 1B, unit assumed
Protocol: as §1, §2, §3

[16] = system: Micrococcus luteus ATCC 4698; experiment: In vitro agar dilution MIC, organism code PP; conditions: Table 1B, in µg/mL (unit assumed)
Protocol: as §1, §2, §3

Escherichia coli JUHL = experiment: In vitro agar dilution MIC, organism code QQ; conditions: Table 1B, in µg/mL (unit assumed)
Protocol: as §1, §2, §3

Escherichia coli SS = experiment: In vitro agar dilution MIC, organism code RR; conditions: Table 1B, in µg/mL (unit assumed)
Protocol: as §1, §2, §3

Escherichia coli DC-2 = experiment: In vitro agar dilution MIC, organism code SS; conditions: Table 1B, unit assumed
Protocol: as §1, §2, §3

Candida albicans CCH 442 = experiment: In vitro agar dilution MIC, organism code TT; conditions: Table 1B, unit assumed
Protocol: as §1, §2, §3

[17] = system: Mycobacterium smegmatis ATCC 114; experiment: In vitro agar dilution MIC, organism code UU; conditions: Table 1B, in µg/mL (unit assumed)
Protocol: as §1, §2, §3

[18] = system: Nocardia asteroides ATCC 9970; experiment: In vitro agar dilution MIC, organism code VV; conditions: Table 1B, in µg/mL (unit assumed)
Protocol: as §1
as §2, with “comparability. Erythromycin A was used for this purpose.” for “comparability.”
as §3

[19] = system: Haemophilis influenzae DILL AMP R; experiment: In vitro agar dilution MIC, organism code WW; conditions: unit assumed
Protocol: as §1, §2, §3

[20] = system: Streptococcus pneumoniae ATCC 6303; experiment: In vitro agar dilution MIC, organism code XX; conditions: unit assumed
Protocol: as §1, §2, §3

[21] = system: Streptococcus pneumoniae GYR 1171; experiment: In vitro agar dilution MIC, organism code YY; conditions: Table 1B, unit assumed
Protocol: as §1, §2, §3

[22] = system: Streptococcus pneumoniae 5979; experiment: In vitro agar dilution MIC, organism code ZZ; conditions: unit assumed
Protocol: as §1, §2, §3

[23] = system: Streptococcus pneumoniae 5649; experiment: In vitro agar dilution MIC, organism code ZZA; conditions: unit assumed
Protocol: as §1, §2, §3

| SMILES | MIC [1] | MIC [2] | MIC [3] | MIC [4] | MIC [5] | MIC [6] | MIC [7] | MIC [8] | MIC [9] | MIC [10] | MIC [11] | MIC ([12]; Table 1B) | MIC ([13]; Table 1B) | MIC ([14]; Table 1B) | MIC [15] | MIC [16] | MIC (Escherichia coli JUHL) | MIC (Escherichia coli SS) | MIC (Escherichia coli DC-2) | MIC (Candida albicans CCH 442) | other results |
| --- | --- | --- | --- | --- | --- | --- | --- | --- | --- | --- | --- | --- | --- | --- | --- | --- | --- | --- | --- | --- | --- |
| CC[C@H]1OC(=O)C(C)(F)C(=O)[C@H](C)[C@@H](O[C@@H]2O[C@H](C)C[C@H](N(C)C)[C@H]2O)[C@](C)(OCC#CC(=O)c2cccs2)C[C@@H](C)C(=O)[C@H](C)[C@H]2NC(=O)O[C@@]21C (some centres unmarked) [Example 24] | 1.56 mg/L (≈ 2.04 µM) | 1.56 | > 100 mg/L | 1.56 mg/L (≈ 2.04 µM) | 1.56 mg/L (≈ 2.04 µM) | 1.56 mg/L (≈ 2.04 µM) | > 100 mg/L | 1.56 | 0.39 mg/L (≈ 0.51 µM) | 0.2 mg/L (≈ 0.261 µM) | 0.39 mg/L (≈ 0.51 µM) | 0.39 mg/L (≈ 0.51 µM) | 100 mg/L (≈ 131 µM) | 3.1 mg/L (≈ 4.05 µM) | 0.2 mg/L (≈ 0.261 µM) | 0.78 | 100 | 3.1 | > 100 mg/L | > 100 mg/L | MIC [17]: 3.1; MIC [18]: 0.78; MIC ([19]; Table 1B): 16 mg/L (≈ 20.9 µM); MIC ([20]; Table 1B): 0.06 mg/L (≈ 0.0784 µM); MIC [21]: 0.03 mg/L (≈ 0.0392 µM); MIC ([22]; Table 1B): > 64 mg/L; MIC ([23]; Table 1B): 1 mg/L (≈ 1.31 µM) |
| CC[C@H]1OC(=O)[C@@](C)(F)C(=O)[C@H](C)[C@@H](O[C@@H]2O[C@H](C)C[C@H](N(C)C)[C@H]2O)[C@](C)(OC/C=C/c2ccc3nccnc3c2)C[C@@H](C)C(=O)[C@H](C)[C@H]2NC(=O)O[C@@]21C [Example 12] | 0.05 mg/L (≈ 0.0637 µM) | 0.05 | > 100 mg/L | 0.05 mg/L (≈ 0.0637 µM) | 0.05 mg/L (≈ 0.0637 µM) | 0.05 mg/L (≈ 0.0637 µM) | > 100 mg/L | 0.05 | 0.01 mg/L (≈ 0.0127 µM) | ≤ 0.005 mg/L | 0.01 mg/L (≈ 0.0127 µM) | 0.01 mg/L (≈ 0.0127 µM) | 0.2 mg/L (≈ 0.255 µM) | 0.05 mg/L (≈ 0.0637 µM) | ≤ 0.005 mg/L | 0.05 | 12.5 | 0.1 | 12.5 mg/L (≈ 15.9 µM) | > 100 mg/L | MIC ([12]; Table 1D): ≤ 0.04 mg/L; MIC ([13]; Table 1D): 0.5 mg/L (≈ 0.637 µM); MIC ([14]; Table 1D): 0.125 mg/L (≈ 0.159 µM); MIC [17]: 0.2; MIC [18]: ≤ 0.005; MIC ([19]; Table 1B): 2 mg/L (≈ 2.55 µM); MIC ([19]; Table 1D): 2 mg/L (≈ 2.55 µM); MIC ([20]; Table 1B): ≤ 0.004 mg/L; MIC ([20]; Table 1D): ≤ 0.004 mg/L; MIC [21]: ≤ 0.004 mg/L; MIC ([22]; Table 1B): 1 mg/L (≈ 1.27 µM); MIC ([22]; Table 1D): 1 mg/L (≈ 1.27 µM); MIC ([23]; Table 1B): 0.125 mg/L (≈ 0.159 µM); MIC ([23]; Table 1D): 0.125 mg/L (≈ 0.159 µM) |
| CC[C@H]1OC(=O)[C@@](C)(F)C(=O)[C@H](C)[C@@H](O[C@@H]2O[C@H](C)C[C@H](N(C)C)[C@H]2O)[C@](C)(OC/C=C/c2cnc3ccc(C=NO)cc3c2)C[C@@H](C)C(=O)[C@H](C)[C@H]2NC(=O)O[C@@]21C [Example 18] | 0.02 mg/L (≈ 0.0242 µM) | 0.05 | 50 mg/L (≈ 60.5 µM) | 0.05 mg/L (≈ 0.0605 µM) | 0.05 mg/L (≈ 0.0605 µM) | 0.05 mg/L (≈ 0.0605 µM) | 50 mg/L (≈ 60.5 µM) | 0.05 | 0.02 mg/L (≈ 0.0242 µM) | ≤ 0.005 mg/L | 0.01 mg/L (≈ 0.0121 µM) | ≤ 0.005 mg/L | 0.2 mg/L (≈ 0.242 µM) | 0.02 mg/L (≈ 0.0242 µM) | 0.01 mg/L (≈ 0.0121 µM) | 0.02 | 25 | 0.2 | 50 mg/L (≈ 60.5 µM) | > 100 mg/L | MIC [17]: 0.78; MIC [18]: 0.01; MIC ([19]; Table 1B): 2 mg/L (≈ 2.42 µM); MIC ([20]; Table 1B): 0.015 mg/L (≈ 0.0181 µM); MIC [21]: 0.015 mg/L (≈ 0.0181 µM); MIC ([22]; Table 1B): 0.25 mg/L (≈ 0.302 µM); MIC ([23]; Table 1B): 0.25 mg/L (≈ 0.302 µM) |
| CC[C@H]1OC(=O)[C@@](C)(F)C(=O)[C@H](C)[C@@H](O[C@@H]2O[C@H](C)C[C@H](N(C)C)[C@H]2O)[C@](C)(OC/C=C/c2ccccc2)C[C@@H](C)C(=O)[C@H](C)[C@H]2NC(=O)O[C@@]21C [Example 7] | 0.05 mg/L (≈ 0.0682 µM) | 0.05 | 100 mg/L (≈ 136 µM) | 0.05 mg/L (≈ 0.0682 µM) | 0.05 mg/L (≈ 0.0682 µM) | 0.05 mg/L (≈ 0.0682 µM) | 100 mg/L (≈ 136 µM) | 0.05 | 0.02 mg/L (≈ 0.0273 µM) | ≤ 0.005 mg/L | ≤ 0.005 mg/L | ≤ 0.005 mg/L | 25 mg/L (≈ 34.1 µM) | 0.05 mg/L (≈ 0.0682 µM) | ≤ 0.005 mg/L | 0.02 | 50 | 0.1 | 25 mg/L (≈ 34.1 µM) | > 100 mg/L | MIC ([12]; Table 1D): ≤ 0.04 mg/L; MIC ([13]; Table 1D): 16 mg/L (≈ 21.8 µM); MIC ([14]; Table 1D): 0.25 mg/L (≈ 0.341 µM); MIC [17]: 0.05; MIC [18]: ≤ 0.005; MIC ([19]; Table 1B): 2 mg/L (≈ 2.73 µM); MIC ([19]; Table 1D): 2 mg/L (≈ 2.73 µM); MIC ([20]; Table 1B): ≤ 0.004 mg/L; MIC ([20]; Table 1D): ≤ 0.04 mg/L; MIC [21]: ≤ 0.004 mg/L; MIC ([22]; Table 1B): 64 mg/L (≈ 87.3 µM); MIC ([22]; Table 1D): 64 mg/L (≈ 87.3 µM); MIC ([23]; Table 1B): 0.25 mg/L (≈ 0.341 µM); MIC ([23]; Table 1D): 0.25 mg/L (≈ 0.341 µM) |
